Test results taken from patent US20110105397A1, “METHOD FOR TREATING HEART FAILURE WITH STRESSCOPIN-LIKE PEPTIDES” (priority 2009, published 2011).
Where a SMILES comes first, the peptide text is derived from it. The star is where a group is joined. Succinimide(1-Et,3-yl) = CCN1C(=O)CC(*)C1=O

Target: T1, human CRHR2 (Homo sapiens, UniProt Q13324)
T1 construct: expressed in transfected cells
T1 sequence (Q13324 1-411): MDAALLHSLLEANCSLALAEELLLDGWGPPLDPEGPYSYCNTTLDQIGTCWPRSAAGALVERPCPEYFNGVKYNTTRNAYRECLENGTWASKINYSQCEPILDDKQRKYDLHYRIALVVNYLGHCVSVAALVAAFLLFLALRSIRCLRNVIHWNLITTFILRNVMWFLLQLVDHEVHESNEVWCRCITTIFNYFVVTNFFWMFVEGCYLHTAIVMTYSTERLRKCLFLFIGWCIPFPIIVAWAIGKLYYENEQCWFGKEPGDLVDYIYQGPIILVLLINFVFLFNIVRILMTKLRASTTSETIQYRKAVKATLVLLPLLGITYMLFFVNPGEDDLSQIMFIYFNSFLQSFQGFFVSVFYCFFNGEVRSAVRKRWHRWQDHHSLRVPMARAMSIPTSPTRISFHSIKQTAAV
Assay: cAMP assay, h-CRHR2 transfected SK-N-MC cells
Type: cell-based
Conditions: Table 13; for EC50: cysteine mutation, N-ethylmaleimide capping, pegylation, read-out: pA50 (converted); for Log DR [M]: h-SCP control pA50 minus test compound pA50 within the same assay batch
Description: The concentration required for 50% maximum effect (A50) was 0.4 nM.
Human CRHR1 (accession number X72304) or CRHR2 (accession number U34587) were cloned into pcDNA3.1/Zeo expression vector and stably transfected into SK—N-MC cells by electroporation. Cells were maintained in MEM w/Earl's Salt with 10% FBS, 50 I.U. penicillin, 50 μg/ml streptomycin, 2 mM L-glutamine, 1 mM sodium pyruvate and 0.1 mM non-essential amino acids, 600 μg/ml G418. Cells were grown at 37° C. in 5% CO2
Cells were plated in 96-well tissue culture dishes (Biocoat from BD Biosciences) overnight at 50,000 cell/well. Cells were washed with PBS then resuspended in DMEM F-12 without phenol red, containing 10 μM isobutylmethylxanthine (IBMX). Cells were incubated with the peptides at concentrations ranging from 1 pM to 10 μM for 60 min at 37° Celsius. […] Forskolin (10 μM), a direct stimulant of adenylate cyclase, was used as positive control. The assays were stopped by the addition of 0.5 M HCl and mixing by orbital rotation for 2 h at 4° Celsius.
To assess the activity of the inventive polypeptide at the CRHR2, an intracellular cAMP measurement test using a Flash plate radioactive assay (Catalog No. Cus56088; Perkin Elmer, Mass., U.S.A.) was employed.
Transfected SK—N-MC cells were plated in 96-well Biocoat tissue culture dishes (BD Biosciences, San Jose, Calif., U.S.A) overnight at 50,000 cell/well. Cells were first washed with PBS and then suspended with DMEM/F-12 without phenol red, containing […]. Suspended cells were transferred into a 96-well flash plate coated with scintillant fluid. Cells were incubated with peptides ranging from 1 pM to 1 μM, for 60 min, at 37° Celsius. Forskolin at 10 μM was used as positive control. After ligand stimulation, cells were lysed by the addition of 0.5M HCl and mixed by orbital rotation for 2 h at 4° Celsius in order to release intracellular cAMP into the media.
Media containing released intracellular cAMP was transferred to a 96-well flash plate coated with scintillant fluid containing an anti-cAMP antibody. In this assay, intracellular cAMP competes with ^125I-labeled cAMP binding to the antibody. To generate a standard curve, cAMP ranging from 2.5 to 250 pmoles/ml was included in the experiment. [^125I]-cAMP was measured on a TopCount scintillation counter (Perkin Elmer, Mass., U.S.A).
Individual agonist concentration-response curve data were fitted to the Hill equation, see formula below, using GraphPad Prism (Graphpad Software, La Jolla, Calif., U.S.A.), to provide estimates of agonist concentration needed to generate one-half maximal response (A50), and the maximal asymptote (α) and Hill slope (nH) parameters. In this equation, [A] is the agonist concentration and E is the measured effect:
For display purposes the mean fitted parameter estimates were used to generate a single E/[A] curve shown superimposed on the mean experimental data. Potency estimates for agonists, pA50, are expressed as the negative logarithm of the midpoint of each curve and listed with their standard error of measurement (SEM). Logarithm base 10 of the agonist dose ratio (Log DR) values were calculated by subtraction of the test compound pA50 value from the corresponding h-SCP (SEQ ID NO:1) control pA50 value within the same assay batch. The SEM values of the Log DR values are given by the square root of the sum of the squared SEM values of the h-SCP (SEQ ID NO:1) control and test compound pA50 values.
Human and rat peptides (see Table 10) were used on the stimulation of h-CRHR1 or h-CRHR2 transfected SK—N-MC cells in the cAMP flash plate assay. Peptides were incubated for 1 hr at 37° Celsius. Curves were calculated using non-linear regression sigmoidal concentration-response analysis calculation in GraphPad Prism. The so obtained pA50 values are shown in Table 11 in addition to literature values. […]

| EC50 [pM] | Log DR [M] | Compound |
| --- | --- | --- |
| 437 | 0.11 | CC[C@H](C)[C@H](NC(=O)[C@H](CCC(N)=O)NC(=O)[C@H](C)NC(=O)[C@H](CCSC)NC(=O)[C@H](CC(C)C)NC(=O)[C@H](Cc1c[nH]cn1)NC(=O)[C@H](C)NC(=O)[C@H](CC(N)=O)NC(=O)[C@H](C)NC(=O)[C@H](C)NC(=O)[C@H](C)NC(=O)[C@H](CCC(N)=O)NC(=O)[C@H](C)NC(=O)[C@H](CCCNC(=N)N)NC(=O)[C@H](CC(C)C)NC(=O)[C@H](CSC1CC(=O)N(CC)C1=O)NC(=O)[C@H](CCCCN)NC(=O)[C@H](C)NC(=O)[C@H](CCCCN)NC(=O)[C@H](C)NC(=O)[C@@H](NC(=O)[C@H](CC(N)=O)NC(=O)[C@H](Cc1ccccc1)NC(=O)[C@H](CC(C)C)NC(=O)[C@H](CC(C)C)NC(=O)[C@H](CC(N)=O)NC(=O)[C@H](CCSC)NC(=O)[C@@H](NC(=O)[C@H](CC(N)=O)NC(=O)[C@@H](NC(=O)[C@@H]1CCCN1C(=O)[C@@H](NC(=O)[C@H](CC(=O)O)NC(=O)[C@H](CC(C)C)NC(=O)[C@H](CO)NC(=O)[C@H](CC(C)C)NC(=O)[C@@H](NC(=O)[C@H](Cc1ccccc1)NC(=O)[C@H](CCCCN)NC(=O)[C@@H](N)[C@@H](C)O)[C@@H](C)O)C(C)C)[C@@H](C)O)[C@@H](C)CC)[C@@H](C)CC)C(N)=O (some centres unmarked) [SEQ ID NO: 49, TKFTLSLDVPTNIMNLLFNIAKAKC(-NES) LRAQA AANAH LMAQI-NH2] (H-TKFTLSLDVPTNIMNLLFNIAKAKC(Succinimide(1-Et,3-yl))LRAQAAANAHLMAQI-NH2; N-terminus assumed) |
| 331 | −0.01 | CC[C@H](C)[C@H](NC(=O)[C@H](CCC(N)=O)NC(=O)[C@H](C)NC(=O)[C@H](CCSC)NC(=O)[C@H](CC(C)C)NC(=O)[C@H](Cc1c[nH]cn1)NC(=O)[C@H](C)NC(=O)[C@H](CC(N)=O)NC(=O)[C@H](C)NC(=O)[C@H](C)NC(=O)[C@H](C)NC(=O)[C@H](CCC(N)=O)NC(=O)[C@H](C)NC(=O)[C@H](CCCNC(=N)N)NC(=O)[C@H](CC(C)C)NC(=O)[C@H](CC(N)=O)NC(=O)[C@H](CSC1CC(=O)N(CC)C1=O)NC(=O)[C@H](C)NC(=O)[C@H](CCCCN)NC(=O)[C@H](C)NC(=O)[C@@H](NC(=O)[C@H](CC(N)=O)NC(=O)[C@H](Cc1ccccc1)NC(=O)[C@H](CC(C)C)NC(=O)[C@H](CC(C)C)NC(=O)[C@H](CC(N)=O)NC(=O)[C@H](CCSC)NC(=O)[C@@H](NC(=O)[C@H](CC(N)=O)NC(=O)[C@@H](NC(=O)[C@@H]1CCCN1C(=O)[C@@H](NC(=O)[C@H](CC(=O)O)NC(=O)[C@H](CC(C)C)NC(=O)[C@H](CO)NC(=O)[C@H](CC(C)C)NC(=O)[C@@H](NC(=O)[C@H](Cc1ccccc1)NC(=O)[C@H](CCCCN)NC(=O)[C@@H](N)[C@@H](C)O)[C@@H](C)O)C(C)C)[C@@H](C)O)[C@@H](C)CC)[C@@H](C)CC)C(N)=O (some centres unmarked) [SEQ ID NO: 50, TKFTLSLDVPTNIMNLLFNIAKAC(-NES)N LRAQA AANAH LMAQI-NH2] (H-TKFTLSLDVPTNIMNLLFNIAKAC(Succinimide(1-Et,3-yl))NLRAQAAANAHLMAQI-NH2; N-terminus assumed) |
| 1620 | 0.68 | CC[C@H](C)[C@H](NC(=O)[C@H](CCC(N)=O)NC(=O)[C@H](C)NC(=O)[C@H](CCSC)NC(=O)[C@H](CC(C)C)NC(=O)[C@H](Cc1c[nH]cn1)NC(=O)[C@H](C)NC(=O)[C@H](CC(N)=O)NC(=O)[C@H](C)NC(=O)[C@H](C)NC(=O)[C@H](C)NC(=O)[C@H](CCC(N)=O)NC(=O)[C@H](C)NC(=O)[C@H](CCCNC(=N)N)NC(=O)[C@H](CC(C)C)NC(=O)[C@H](CC(N)=O)NC(=O)[C@H](CCCCN)NC(=O)[C@H](C)NC(=O)[C@H](CCCCN)NC(=O)[C@H](C)NC(=O)[C@H](CSC1CC(=O)N(CC)C1=O)NC(=O)[C@H](CC(N)=O)NC(=O)[C@H](Cc1ccccc1)NC(=O)[C@H](CC(C)C)NC(=O)[C@H](CC(C)C)NC(=O)[C@H](CC(N)=O)NC(=O)[C@H](CCSC)NC(=O)[C@@H](NC(=O)[C@H](CC(N)=O)NC(=O)[C@@H](NC(=O)[C@@H]1CCCN1C(=O)[C@@H](NC(=O)[C@H](CC(=O)O)NC(=O)[C@H](CC(C)C)NC(=O)[C@H](CO)NC(=O)[C@H](CC(C)C)NC(=O)[C@@H](NC(=O)[C@H](Cc1ccccc1)NC(=O)[C@H](CCCCN)NC(=O)[C@@H](N)[C@@H](C)O)[C@@H](C)O)C(C)C)[C@@H](C)O)[C@@H](C)CC)C(N)=O (some centres unmarked) [SEQ ID NO: 51, TKFTL SLDVP TNIMN LLFNC(-NES) AKAKN LRAQA AANAH LMAQI-NH2] (H-TKFTLSLDVPTNIMNLLFNC(Succinimide(1-Et,3-yl))AKAKNLRAQAAANAHLMAQI-NH2; N-terminus assumed) |
| 380 | 0.05 | CC[C@H](C)[C@H](NC(=O)[C@H](CCC(N)=O)NC(=O)[C@H](C)NC(=O)[C@H](CCSC)NC(=O)[C@H](CC(C)C)NC(=O)[C@H](Cc1c[nH]cn1)NC(=O)[C@H](C)NC(=O)[C@H](CC(N)=O)NC(=O)[C@H](C)NC(=O)[C@H](C)NC(=O)[C@H](C)NC(=O)[C@H](CCC(N)=O)NC(=O)[C@H](C)NC(=O)[C@H](CCCNC(=N)N)NC(=O)[C@H](CC(C)C)NC(=O)[C@H](CC(N)=O)NC(=O)[C@H](CCCCN)NC(=O)[C@H](C)NC(=O)[C@H](CCCCN)NC(=O)[C@H](C)NC(=O)[C@@H](NC(=O)[C@H](CSC1CC(=O)N(CC)C1=O)NC(=O)[C@H](Cc1ccccc1)NC(=O)[C@H](CC(C)C)NC(=O)[C@H](CC(C)C)NC(=O)[C@H](CC(N)=O)NC(=O)[C@H](CCSC)NC(=O)[C@@H](NC(=O)[C@H](CC(N)=O)NC(=O)[C@@H](NC(=O)[C@@H]1CCCN1C(=O)[C@@H](NC(=O)[C@H](CC(=O)O)NC(=O)[C@H](CC(C)C)NC(=O)[C@H](CO)NC(=O)[C@H](CC(C)C)NC(=O)[C@@H](NC(=O)[C@H](Cc1ccccc1)NC(=O)[C@H](CCCCN)NC(=O)[C@@H](N)[C@@H](C)O)[C@@H](C)O)C(C)C)[C@@H](C)O)[C@@H](C)CC)[C@@H](C)CC)C(N)=O (some centres unmarked) [SEQ ID NO: 52, TKFTL SLDVP TNIMN LLFC(-NES)I AKAKN LRAQA AANAH LMAQI-NH2] (H-TKFTLSLDVPTNIMNLLFC(Succinimide(1-Et,3-yl))IAKAKNLRAQAAANAHLMAQI-NH2; N-terminus assumed) |
